# In BindingDB's records for PubMed 1988661 (Merck Sharp & Dohme Research Laboratories, 1991):
# Positions count from the first letter of the chain named. Where “and” joins values, the source holds several entries; their conditions need not be identical. Identical values can stand only once. Square brackets hold non-standard residues; d marks the D form. Peptide text beside a SMILES is read from it. dPiz(1,6-dehydro) = O=C(O)[C@H]1CCC=NN1; Pip = O=C(O)[C@@H]1CCCCN1; dPip = O=C(O)[C@H]1CCCCN1
# Tests used:
# Vasopressin V2 receptor = Vasopressin V2 receptor (Rattus norvegicus, UniProt Q00788)
# [1] = target: T1, Rat vasopressin-neurophysin (Rattus norvegicus, UniProt Q6LEI5)
# T1 sequence (Q6LEI5 whole entry): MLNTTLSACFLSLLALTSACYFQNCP
# Oxytocin receptor [2] = target: T2, Oxytocin receptor (Rattus norvegicus, UniProt P70536)
# T2 sequence (P70536 whole entry): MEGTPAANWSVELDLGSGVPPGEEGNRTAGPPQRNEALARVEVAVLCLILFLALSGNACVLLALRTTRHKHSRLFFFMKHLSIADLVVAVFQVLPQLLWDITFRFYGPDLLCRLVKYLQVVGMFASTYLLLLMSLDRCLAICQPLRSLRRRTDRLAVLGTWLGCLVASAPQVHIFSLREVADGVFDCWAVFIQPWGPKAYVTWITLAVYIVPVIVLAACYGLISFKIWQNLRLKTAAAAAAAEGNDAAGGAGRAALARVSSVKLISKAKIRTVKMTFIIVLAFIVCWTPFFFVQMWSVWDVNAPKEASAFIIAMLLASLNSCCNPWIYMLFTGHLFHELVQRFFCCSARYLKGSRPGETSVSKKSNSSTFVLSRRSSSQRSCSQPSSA
# Oxytocin receptor [3] = target: T3, Oxytocin receptor (Macaca mulatta, UniProt P56494)
# T3 sequence (P56494 whole entry): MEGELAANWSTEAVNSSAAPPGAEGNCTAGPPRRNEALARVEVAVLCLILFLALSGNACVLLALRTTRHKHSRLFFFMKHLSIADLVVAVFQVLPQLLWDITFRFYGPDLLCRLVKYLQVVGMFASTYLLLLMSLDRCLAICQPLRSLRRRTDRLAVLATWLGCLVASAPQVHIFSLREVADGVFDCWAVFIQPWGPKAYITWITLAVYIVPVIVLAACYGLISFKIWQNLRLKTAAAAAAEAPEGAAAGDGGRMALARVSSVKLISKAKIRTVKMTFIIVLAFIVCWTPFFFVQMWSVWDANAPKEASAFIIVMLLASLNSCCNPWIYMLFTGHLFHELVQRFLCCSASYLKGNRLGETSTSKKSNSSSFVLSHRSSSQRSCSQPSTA
# Oxytocin receptor [4] = target: T4, Oxytocin receptor (Homo sapiens, UniProt P30559)
# T4 sequence (P30559 whole entry): T3 sequence (P56494 whole entry) with E4A, T11A, V14A, S16A, C27R, F51L, H69Q, M255V, N355R, T362A
# Sequence of Vasopressin V2 receptor (Q00788 whole entry): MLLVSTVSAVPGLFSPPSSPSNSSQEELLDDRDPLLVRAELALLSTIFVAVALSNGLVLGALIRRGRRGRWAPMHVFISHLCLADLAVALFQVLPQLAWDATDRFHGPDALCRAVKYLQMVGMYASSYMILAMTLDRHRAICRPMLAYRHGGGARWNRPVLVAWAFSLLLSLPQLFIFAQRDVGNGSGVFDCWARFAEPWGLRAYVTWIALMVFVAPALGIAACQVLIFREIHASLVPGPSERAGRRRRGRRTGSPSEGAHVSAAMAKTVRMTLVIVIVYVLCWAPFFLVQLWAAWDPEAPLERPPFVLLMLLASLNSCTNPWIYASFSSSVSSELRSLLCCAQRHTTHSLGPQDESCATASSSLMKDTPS
SMILES,Ki (Vasopressin V2 receptor),Ki [1],Ki (Oxytocin receptor [2]),Ki (Oxytocin receptor [3]),Ki (Oxytocin receptor [4])
CC[C@H](C)[C@@H]1NC(=O)[C@@H](Cc2c[nH]c3ccccc23)NC(=O)[C@@H]2CCCN2C(=O)[C@@H](Cc2c[nH]cn2)NC(=O)[C@@H]2CCCCN2C(=O)[C@H]2CCCCN2C1=O [CAS_196819] (cyclo(I[dPip][Pip][dH]P[dW])),3100 nM,2200 nM,,,
CCC(C)C1NC(=O)[C@H](Cc2ccccc2)NC(=O)[C@H]2CCCN2C(=O)[C@H](Cc2ccccc2)N(C)C(=O)[C@@H]2CCC=NN2C(=O)[C@H]2CCC=NN2C1=O (some centres undefined) [J325.338D],,,7.3 nM and 12 nM,12 nM,
"CC[C@H](C)[C@@H]1NC(=O)[C@@H](Cc2c[nH]c3ccccc23)NC(=O)[C@@H]2CCCN2C(=O)[C@@H](Cc2cnc[nH]2)NC(=O)[C@@H]2CCCCN2C(=O)[C@H]2CCC=NN2C1=O [J325.349J] (cyclo(I[dPiz(1,6-dehydro)][Pip][dH]P[dW]))",370 nM,1200 nM,1.3 nM and 2.5 nM,2.3 nM,1.3 nM
CC[C@H](C)[C@@H]1NC(=O)[C@@H](Cc2ccccc2)NC(=O)[C@@H]2CCCN2C(=O)[C@@H](Cc2ccccc2)N(C)C(=O)[C@H]2CCC=NN2C1=O [J440.774A],550 nM,240 nM,6 nM and 13 nM,33 nM,21 nM
CCC(C)C1NC(=O)[C@H](Cc2ccccc2)NC(=O)[C@H]2CCCN2C(=O)[C@H](Cc2ccccc2)N(C)C(=O)[C@H]2CC(CN(C)C)CNN2C(=O)[C@H]2CCC=NN2C1=O (some centres undefined) [J440.775J],1100 nM,550 nM,4.3 nM and 6.2 nM,8.1 nM,4.1 nM
CCC(C)C(NC(=O)C(N)Cc1ccc2ccccc2c1)C(=O)C1(C=O)CCCN1C(=O)C(N)CC1=NC(C(=O)N2CCCCC2)(C(=O)N2CCCCC2)N=C1 (centres undefined) [NSC_188397],810 nM and 320 nM,760 nM,0.7 nM and 0.8 nM,6.4 nM,5.1 nM
CCC(C)C(N)C(=O)N(C(=O)C1CCCN1C(=O)C(CC1=CC=CCC1(C(=O)N1C=CC=CC1)C(=O)N1CCNCC1)NC)C(C=O)Cc1c[nH]c2ccccc12 (centres undefined) [NSC_3083084],240 nM,9500 nM,3.4 nM and 4.2 nM,4.7 nM,4.5 nM
